According to ChEMBL document CHEMBL1147398, “New structures and bioactivity patterns of bengazole alkaloids from a choristid marine sponge” (1993):

Columns and labels:
[1] = system: COLO 205; assay: Cytotoxicity against human COLO205 cells; assay type: functional
[2] = system: SK-MEL-5; assay: Cytotoxicity against human SK-MEL-5 cells; assay type: functional
[3] = read-out: LC50 (the source's name)

Q: `CCCCCCCCCCCCCC(=O)O[C@@H](c1cnco1)c1nc([C@@H](O)C[C@@H](O)[C@@H](O)[C@@H](C)O)co1` [BENGAZOLE A] was tested. Which GI50 [1] did it give?
A: Its GI50 is 0.181 µM.

Q: And the TGI [1]?
A: The TGI was 1.5 µM.

Q: And the CC50 [1, 3]?
A: The CC50 was 5.25 µM.

Q: What about the GI50 [2] of the same compound?
A: The GI50 was 1.13 µM.

Q: What about the TGI [2] of the same compound?
A: The TGI was 4.83 µM.

Q: And the CC50 [2, 3]?
A: The CC50 was 4.83 µM.
